Test results as given in patent US12486302B2, “Somatostatin receptor antagonist compounds and methods of using the same” (CDRD VENTURES INC., priority 2016, dated 2025).
*1 amine or outer side, *2 acyl side, *3 side chain or, on linkers, in order; H or OH if unused. Where a SMILES comes first, the peptide text is derived from it. Bridges are numbered along the chain shown (N, C = ends). Side-chain parts run from the residue outwards. [ ]: non-standard residue; d: D form. The star is where a group is joined. dPhe(4-CH2NHCONH2) = NC(=O)NCc1ccc(C[C@@H](N)C(=O)O)cc1; dPhe(4-CONH2) = NC(=O)c1ccc(C[C@@H](N)C(=O)O)cc1; X2 = CCCCCNc1ccc(C[C@@H](N[*:1])C(=O)[*:2])cc1; dPhe(4-NH2) = Nc1ccc(C[C@@H](N)C(=O)O)cc1; Phe(4-Cl) = N[C@@H](Cc1ccc(Cl)cc1)C(=O)O; Lys(Me) = CNCCCC[C@H](N)C(=O)O; CO = O=C([*:1])[*:2]; NHPh = c1ccc(N*)cc1

Legend:
[1] = molecular target: SSTR3 (Homo sapiens, UniProt P32745); test: PathHunter β-Arrestin assay, antagonist mode, SSTR3; format: cell-based; details: agonist challenge at EC80
Description: (§1) The PathHunter® β-Arrestin assay monitors the activation of a GPCR in a homogenous, non-imaging assay format using a technology developed by DiscoveRx called Enzyme Fragment Complementation (EFC) with β-galactosidase (β-Gal) as the functional reporter. […] EA is fused to β-Arrestin and […] is fused to the GPCR of interest. When the GPCR is activated and β-Arrestin is recruited to the receptor, ED and EA complementation occurs, restoring β-Gal activity which is measured using chemiluminescent PathHunter® Detection Reagents. For antagonist determination, cells were pre-incubated with the compounds followed by agonist challenge at the EC80 concentration. Data was normalized to the maximal and minimal response observed in the presence of EC80 ligand and vehicle. Compound activity was analyzed using CBIS data analysis suite ChemInnovation, CA). Percentage inhibition was calculated using the following formula: % Inhibition=100%×(1−(mean signal of test sample-mean signal of vehicle control)/(mean signal of EC80 control-mean signal of vehicle control)). Percentage inhibition was calculated at 10 concentrations in steps on a Log 3 scale ranging from […] to 5e-5 μM. The results were plotted for IC50 calculation.

[2] = molecular target: SSTR1 (Homo sapiens, UniProt P30872); test: PathHunter β-Arrestin assay, antagonist mode, SSTR1; format: cell-based; details: agonist challenge at EC80
Description: as §1

[3] = molecular target: somatostatin type 2 (SSTR2) receptors (Homo sapiens, UniProt P30874); test: PathHunter β-Arrestin assay, antagonist mode, SSTR2; format: cell-based; details: agonist challenge at EC80
How it was run: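 Cells co-expressing PK-tagged human receptor and EA-β-Arrestin were pre-incubated with compound, then challenged with agonist at EC80. β-Gal complementation read by chemiluminescence; % inhibition normalized to EC80 and vehicle controls at 10 concentrations (log 3 steps from 1 μM down to 5e-5 μM), fitted for IC50.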

[4] = molecular target: SSTR5 (Homo sapiens, UniProt P35346); test: PathHunter β-Arrestin assay, antagonist mode, SSTR5; format: cell-based; details: agonist challenge at EC80
Description: as §1

[5] = molecular target: SSTR4 (Homo sapiens, UniProt P31391); test: PathHunter β-Arrestin assay, antagonist mode, SSTR4; format: cell-based; details: agonist challenge at EC80
Description: as §1

[6] = test system: STZ diabetic Sprague Dawley rats; test: Hypoglycemic Challenge #1 (10 U/kg insulin) in STZ diabetic rats; format: in vivo, rat; details: for period after insulin with significantly higher BG values compared with Vehicle Control: 2-Way ANOVA, insulin 10 U/kg; for peak glucagon value: saphenous blood, 0 to 100 minutes after insulin dosing
Description: (§2) Male Sprague Dawley rats (initial weight 150-175 g) were purchased from Charles River Laboratories (Montreal, QC, Canada). Rats were housed in the York University Vivarium in a 12-hour light dark cycle. All animals were fed a standard rodent chow diet (14% fat, 54% carbohydrates, […] & 3.0 calories/g of food) and water ad libitum. After a minimum of one week of acclimation, all animals received an intraperitoneal injection of streptozotocin (STZ) (Sigma) at a dose of 65 mg/kg body weight. After STZ injection, animals were provided with sugar water (5% solution) overnight. Any animals whose blood glucose was not greater than 10 mM within 2 days of STZ injection received a second injection.
One week after induction of diabetes, insulin treatment was initiated to maintain blood glucose values within a reasonable glucose controlled range in the fasted state (8-20 mM). Insulin pellets (LinChin, Toronto, ON, Canada) were implanted subcutaneously in any rat with blood glucose over 20 mM. Briefly, animals were anesthetized via inhaled isoflurane and pellets were implanted subcutaneously within the scapular region. One week later animals underwent their first hypoglycemic challenge (Hypoglycemic Challenge #1), followed by a second hypoglycemic challenge (Hypoglycemic Challenge #2) the following week (see below). Throughout the study, daily animals checks were conducted to assess body weight, blood glucose as well as food/calorie consumption.
Animals were divided into groups and received Compound 4, or Compound 24 or a corresponding dose of vehicle. Compounds were given 1 hour prior to commencement of the hypoglycemic challenge. On the morning of the hypoglycemic challenge, food was removed from the cage and a plasma sample was collected as baseline (prior to compound/vehicle administration), one-hour post drug/vehicle administration and at set points throughout the challenges.
For Hypoglycemic Challenge #1, hypoglycemia was induced via subcutaneous administration of a bolus of insulin (10U Novo Rapid insulin/kg body weight). Blood glucose was assessed every 10 minutes via saphenous vein puncture. Additionally, plasma was collected from the saphenous vein every 20 minutes, until 100-minutes post insulin administration. An additional plasma sample was collected 4-hours post drug administration (3 hours post insulin bolus) for mass spectrometry analysis of the compounds in plasma.

[7] = test system: STZ diabetic Sprague Dawley rats; test: Hypoglycemic Challenge #2 (20 U/kg insulin) in STZ diabetic rats; format: in vivo, rat; details: 20 U/kg insulin challenge; target BG 2.5 mM; N=9
Description: as §2
One week after induction of diabetes, insulin treatment was initiated to maintain blood glucose values within a reasonable glucose controlled range in the fasted state (8-20 mM). Insulin pellets (LinChin, Toronto, ON, Canada) were implanted subcutaneously in any rat with blood glucose over 20 mM. […]
One week after the first hypoglycemia challenge, a second similar hypoglycemic challenge (Hypoglycemia Challenge #2) was conducted; however this time a higher dose of insulin was given to insure that severe hypoglycemia developed (20U Novo Rapid/kg body weight). Blood glucose was monitored, every 5-10 min, via saphenous vein puncture. […]

Sequence of SSTR5 (P35346 whole entry): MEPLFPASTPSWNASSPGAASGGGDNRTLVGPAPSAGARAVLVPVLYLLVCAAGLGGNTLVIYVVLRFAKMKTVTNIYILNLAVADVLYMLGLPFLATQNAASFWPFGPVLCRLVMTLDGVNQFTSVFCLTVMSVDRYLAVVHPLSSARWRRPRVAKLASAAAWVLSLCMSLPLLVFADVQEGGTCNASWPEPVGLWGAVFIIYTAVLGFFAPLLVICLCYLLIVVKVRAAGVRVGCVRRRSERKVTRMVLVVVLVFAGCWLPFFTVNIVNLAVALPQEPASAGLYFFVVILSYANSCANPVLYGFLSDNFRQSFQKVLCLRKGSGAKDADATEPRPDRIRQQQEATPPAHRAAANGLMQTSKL
Sequence of SSTR3 (P32745 whole entry, the tested form may be a part): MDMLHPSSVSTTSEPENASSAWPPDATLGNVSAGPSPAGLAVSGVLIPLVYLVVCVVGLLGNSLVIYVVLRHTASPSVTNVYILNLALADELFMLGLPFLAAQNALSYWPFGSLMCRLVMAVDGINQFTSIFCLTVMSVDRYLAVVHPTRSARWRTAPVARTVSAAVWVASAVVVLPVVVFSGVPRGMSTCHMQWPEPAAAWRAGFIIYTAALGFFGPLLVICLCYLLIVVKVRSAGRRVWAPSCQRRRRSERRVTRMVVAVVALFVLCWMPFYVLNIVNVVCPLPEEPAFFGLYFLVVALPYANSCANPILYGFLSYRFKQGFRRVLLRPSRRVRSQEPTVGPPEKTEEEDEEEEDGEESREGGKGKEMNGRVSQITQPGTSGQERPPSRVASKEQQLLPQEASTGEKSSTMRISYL
Sequence of SSTR4 (P31391 whole entry): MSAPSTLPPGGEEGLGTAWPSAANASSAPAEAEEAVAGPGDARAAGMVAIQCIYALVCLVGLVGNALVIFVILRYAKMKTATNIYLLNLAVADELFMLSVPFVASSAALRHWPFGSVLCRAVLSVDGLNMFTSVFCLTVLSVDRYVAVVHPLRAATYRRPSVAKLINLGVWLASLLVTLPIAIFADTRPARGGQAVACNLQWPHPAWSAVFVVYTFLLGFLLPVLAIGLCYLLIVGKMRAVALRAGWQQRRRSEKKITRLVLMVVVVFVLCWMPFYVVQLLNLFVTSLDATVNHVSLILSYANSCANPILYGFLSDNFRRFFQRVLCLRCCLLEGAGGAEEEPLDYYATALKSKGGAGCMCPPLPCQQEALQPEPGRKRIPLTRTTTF
Sequence of SSTR1 (P30872 whole entry): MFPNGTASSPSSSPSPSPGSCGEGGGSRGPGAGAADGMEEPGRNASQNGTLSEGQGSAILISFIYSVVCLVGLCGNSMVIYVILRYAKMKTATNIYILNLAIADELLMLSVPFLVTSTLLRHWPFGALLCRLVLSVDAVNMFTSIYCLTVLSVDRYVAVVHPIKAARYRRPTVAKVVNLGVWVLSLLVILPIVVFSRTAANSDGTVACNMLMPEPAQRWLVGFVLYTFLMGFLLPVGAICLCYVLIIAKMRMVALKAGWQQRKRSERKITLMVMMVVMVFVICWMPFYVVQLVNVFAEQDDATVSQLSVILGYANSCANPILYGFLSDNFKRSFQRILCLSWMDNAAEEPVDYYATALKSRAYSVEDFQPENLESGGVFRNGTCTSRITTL
Sequence of somatostatin type 2 (SSTR2) receptors (P30874 whole entry): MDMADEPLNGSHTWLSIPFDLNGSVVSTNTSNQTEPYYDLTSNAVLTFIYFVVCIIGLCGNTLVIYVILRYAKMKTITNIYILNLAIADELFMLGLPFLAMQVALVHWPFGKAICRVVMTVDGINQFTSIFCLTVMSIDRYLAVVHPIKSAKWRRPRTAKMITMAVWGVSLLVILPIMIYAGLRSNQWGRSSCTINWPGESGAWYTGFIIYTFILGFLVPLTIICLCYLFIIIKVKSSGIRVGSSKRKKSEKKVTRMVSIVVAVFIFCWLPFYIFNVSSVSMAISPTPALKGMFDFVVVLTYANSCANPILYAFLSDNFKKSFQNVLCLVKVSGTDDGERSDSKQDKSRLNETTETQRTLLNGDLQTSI

Compound | IC50 [1] | IC50 [2] | IC50 [3] | IC50 [4] | IC50 [5] | period after insulin with significantly higher BG values compared with Vehicle Control ([6]; N=9) | incidence of severe hypoglycemia (BG threshold 1.9 mM) ([6]; after 130 minutes) | peak glucagon value ([6]; N=9) | average portal blood glucagon concentration at hypoglycemia [7] | time at which rats first became hypoglycemic (BG threshold 3.9 mM) ([6]; 2 of 9 rats, after insulin 10 U/kg) | average time to onset of hypoglycemia (BG first reached 3.9 mM) ([6]; after 10 U/kg insulin dose, interpolated from BG curves, N=9) | incidence of severe hypoglycemia (BG threshold 1.9 mM) ([6]; after 150 minutes) | AUC of blood glucose below the 3.9 mM threshold (extent of hypoglycemia) ([6]; compound at t=-60 min, insulin 10 U/kg at t=0, N=9) | number of rats that never became hypoglycemic ([6]; of 9 rats, BG threshold 3.9 mM)
C[C@@H](O)[C@@H]1NC(=O)[C@H](CCCCN)NC(=O)[C@@H](Cc2ccc(C(N)=O)cc2)NC(=O)[C@H](Cc2ccc(O)cc2)NC(=O)[C@H](NC(=O)[C@@H](N)Cc2ccc(Cl)cc2)CSSC[C@@H](C(=O)N[C@H](Cc2ccc(O)cc2)C(N)=O)NC1=O [Compound 4, H-Cpa-cyclo[D-Cys-Tyr-D-Phe(4-carbamoyl)-Lys-Thr-Cys]-D-Tyr-NH2] | > 1000 nM | > 1000 nM | 17 nM | > 1000 nM | > 1000 nM | 20 min | 33% | 180 pg/mL | 462 pg/mL | – | – | – | – | –
CNCCCC[C@@H]1NC(=O)[C@@H](Cc2ccc(C(N)=O)cc2)NC(=O)[C@H](Cc2ccc(O)cc2)NC(=O)[C@H](NC(=O)[C@@H](N)Cc2ccc(Cl)cc2)CSSC[C@@H](C(=O)N[C@H](Cc2ccc(O)cc2)C(N)=O)NC(=O)[C@H]([C@@H](C)O)NC1=O [Compound 24, H-Cpa-cyclo[D-Cys-Tyr-D-Phe(4-carbamoyl)-Lys(N^ε-Me)-Thr-Cys]-D-Tyr-NH2] (H-[Phe(4-Cl)][dC]Y[dPhe(4-CONH2)][Lys(Me)]TC[dY]-NH2; disulfide 2-7) | > 1000 nM | > 1000 nM | 0.96 nM | > 1000 nM | > 1000 nM | 40 min | – | 175 pg/mL | 801 pg/mL | 40 min | 97 min | 44% | 55 mM·min | 1
CCCCCNc1ccc(C[C@H]2NC(=O)[C@H](Cc3ccc(O)cc3)NC(=O)[C@H](NC(=O)[C@@H](N)Cc3ccc(Cl)cc3)CSSC[C@@H](C(=O)N[C@H](Cc3ccc(O)cc3)C(N)=O)NC(=O)[C@H]([C@@H](C)O)NC(=O)[C@H](CCCCN)NC2=O)cc1 [Compound 12, H-Cpa-cyclo[D-Cys-Tyr-D-Phe(4-n-pentylamino)-Lys-Thr-Cys]-D-Tyr-NH2] (H-[Phe(4-Cl)][dC]Y[X2]KTC[dY]-NH2; disulfide 2-7) | > 1000 nM | > 1000 nM | 17 nM | > 1000 nM | > 1000 nM | – | – | – | – | – | – | – | – | –

Second part, led by results:

IC50 [1] | IC50 [2] | IC50 [3] | IC50 [4] | IC50 [5] | Compound | period after insulin with significantly higher BG values compared with Vehicle Control ([6]; N=9) | incidence of severe hypoglycemia (BG threshold 1.9 mM) ([6]; after 130 minutes) | peak glucagon value ([6]; N=9) | average portal blood glucagon concentration at hypoglycemia [7] | time at which rats first became hypoglycemic (BG threshold 3.9 mM) ([6]; 2 of 9 rats, after insulin 10 U/kg) | average time to onset of hypoglycemia (BG first reached 3.9 mM) ([6]; after 10 U/kg insulin dose, interpolated from BG curves, N=9) | incidence of severe hypoglycemia (BG threshold 1.9 mM) ([6]; after 150 minutes) | AUC of blood glucose below the 3.9 mM threshold (extent of hypoglycemia) ([6]; compound at t=-60 min, insulin 10 U/kg at t=0, N=9) | number of rats that never became hypoglycemic ([6]; of 9 rats, BG threshold 3.9 mM)
> 1000 nM | > 1000 nM | 1 nM | > 1000 nM | > 1000 nM | C[C@@H](O)[C@@H]1NC(=O)[C@H](CCCCN)NC(=O)[C@@H](Cc2ccc(NC(=O)Nc3ccccc3)cc2)NC(=O)[C@H](Cc2ccc(O)cc2)NC(=O)[C@H](NC(=O)[C@@H](N)Cc2ccc(Cl)cc2)CSSC[C@@H](C(=O)N[C@H](Cc2ccc(O)cc2)C(N)=O)NC1=O [Compound 15, H-Cpa-cyclo[D-Cys-Tyr-D-Phe(4-phenylureido)-Lys-Thr-Cys]-D-Tyr-NH2] (H-[Phe(4-Cl)][dC]Y[dPhe(4-NH2)]([CO-NHPh])KTC[dY]-NH2; disulfide 2-7) | – | – | – | – | – | – | – | – | –
> 1000 nM | > 1000 nM | 31 nM | > 1000 nM | > 1000 nM | C[C@@H](O)[C@@H]1NC(=O)[C@H](CCCCN)NC(=O)[C@@H](Cc2ccc(CNC(N)=O)cc2)NC(=O)[C@H](Cc2ccc(O)cc2)NC(=O)[C@H](NC(=O)[C@@H](N)Cc2ccc(Cl)cc2)CSSC[C@@H](C(=O)N[C@H](Cc2ccc(O)cc2)C(N)=O)NC1=O [Compound 7, H-Cpa-cyclo[DCys- Tyr-D-(4- ureidomethyl) Phe-Lys- Thr-Cys]-DTyr-NH2] (H-[Phe(4-Cl)][dC]Y[dPhe(4-CH2NHCONH2)]KTC[dY]-NH2; disulfide 2-7) | – | – | – | – | – | – | – | – | –
